Experimental data as given in US5230998A, “Method for the prescreening of drugs targeted to the V3 hypervariable loop of the HIV-1 envelope glycoprotein gp 120” (priority 1991, dated 1993).
Values after ≈ are worked out from the molar mass of the structure shown.

What was measured:
[1] = target: T1, HIV-1 gp120 V3 hypervariable loop (Human immunodeficiency virus type 1 group M subtype B, UniProt P03375); assay: biochemical; format: binding; settings: for Inhibitory activity: Table 1, reaction between HIV-1 gp120 and anti-V3 loop antibodies; for inhibition at 50 µg/mL: read-out: percentage of inhibition; as to Inhibitory activity: key: Chemicals with inhibitory activity are indicated by +
T1 construct: Polystyrene plates coated with recombinant gp120 and gp160, respectively; purchased American Bio-Technologies, Inc., Cambridge, Mass; host or cells: baculovirus expression system
Method: Wells of 96 well polystyrene plates (Immulon 2, Dynatech Laboratories, Inc., Chantilly, Va.) were coated with synthetic peptides (200 μl; 20μg/ml in 0.1 M Tris-HCl, pH 8.8) overnight at 20° C. The peptides were from the sequence of HIV-1, clone BH 10 envelope glycoproteins gp120 and gp41 (Neurath, A. R., Strick, N., and Lee, E. Y. S. (1990), "B-cell Epitope Mapping of Human Immunodeficiency virus (HIV-1) Envelope Glycoprotein with Long (19 to 36-residue) Synthetic Peptides", J. Gen. Virol., 71., 85-95) and from V3 hypervariable loops of 21 distinct HIV-1 isolates (clones) Neurath, A. R., and Strick, N., (1990), "Confronting the Hypervariability of an Immunodominant Epitope Eliciting Virus Neutralizing Antibodies from the Envelope Glycoprotein of the Human Immunodeficiency Virus Type 1 (HIV-1)", Molec. Immunol., 27, 539-549. The latter peptides corresponded to full-length V3 loops generated by disulfide bonds between N- and C- terminal cysteine residues. After washing with 0.14 M NaCl, 0.01 M Tris, 0.02% NaN3 (TS), the wells were postcoated with a mixture of bovine serum albumin (BSA) and gelatine (10 and 2.5 mg/ml, respectively) in TS. BSA was omitted from the postcoating solution for RIA tests in which antibodies to ATA were used. Polystyrene plates coated with recombinant gp120 and gp160, respectively, (500 ng/well; from American Bio-Technologies, Inc., Cambridge, Mass. and MicroGeneSys, Inc., West Haven, Conn., respectively) were also used for RIA and ELISA tests.
To define sites on gp120/gp41 reacting with ATA, the inhibitory effect of this compound was studied by RIA tests using gp120- and gp160-coated wells, respectively, and antisera (final dilutions 1:150) against synthetic peptides from the entire sequence of gp120/gp41 of HIV-1 BH 10. The preparation and biological properties of these antisera were described elsewhere (Neurath et al., (1990), J. Gen. Virol., 71, 85-95). Each of the antisera was diluted in a mixture of fetal bovine serum and goat serum (9:1) containing 0.1% Tween 20, adjusted to pH 8. ATA (final concentration 50 μg/ml) was added in one set of assays, but was omitted from a parallel set. After incubation overnight at 25° C., the plates were washed with TS. Attached rabbit IgG was detected using ^125 I-labeled anti-rabbit IgG, as described before (Neurath et al., 1990, J. Gen. Virol., 71, 85-95). Similarly, the inhibitory effect of ATA on the reaction of peptides derived from gp120/gp41 and of peptides derived from V3 hypervariable loops from gp120 of distinct HIV-1 isolates with the respective homologous anti-peptide antisera was studied. In the latter case, antisera were diluted 1:1,000 for the assays.
The inhibitory effect of ATA and of other compounds on the reaction between antibodies with predetermined specificity and gp120 (or synthetic peptides derived from it) was determined from the formula: [formula] An analogous formula was used to calculate the percentage of inhibition from optical density readings resulting from ELISA tests.
Chemicals other than ATA were screened for inhibitory activity essentially as described above. […] Chemicals with inhibitory activity established by the respective immunoassays were screened further for antiviral activity.
Commercially available ATA is a mixture of monomers and polymers of distinct molecular masses (Gonzalez et al., (1979) Biochem. Biophys. Acta, 562, 534-545); Cushman et al., (1991), J. Chem., 34, 329-337). The monomers [molecular mass (M.W.)=422.4 daltons] were separated from the polymers. ATA (20 mg/ml in the form of free acid neutralized with 0.4 M NaOH) was dialyzed against H2 O in a dialysis membrane with a molecular mass cutoff of 500 daltons.

HIV-1 = assay: Antiviral activity: inhibition of P24 production in MT-2 cells; format: cell-based, HIV-1 IIIB; design: inhibition: dose or concentration left out as unconfirmed; settings: Human immunodeficiency virus 1, MT2, Table 1; for EC50: read-out: EC50 (concentration at which the production of P24 was reduced to 50% of that detected in control cultures); for inhibition: read-out: percentage of inhibition of P24 nucleoprotein production
Method: All chemicals were tested at serial two-fold dilutions (1.25-80 μg/ml, prepared from a stock solution containing 10 mg/ml in dimethylsulfoxide). The chemicals were obtained from Aldrich, Milwaukee, Wis. or were synthesized. Their inhibitory activity was determined by two distinct methods, based on inhibition of synthesis of core protein P24 and on protection by the chemicals of cells against the cytopathic effect of HIV-1 (colorimetric method) respectively.
The chemicals were serially diluted in RPMI 1640 medium without phenol red (GIBCO, Grand Island, N.Y.) containing 10% fetal calf serum (FCS). Aliquots of the diluted solutions were added to wells of 96 well plates and mixed with an equal volume of diluted HIV-1 [multiplicity of infection (MOI) =0.0045]. After incubation for 1 hour at 37° C., 25 μl of polybrene (1 μg/ml) treated MT-2 cells (Harada, S., Koyanagi, Y., Yamamoto, N., (1985), "Infection of HTLV-III/LAV in HTLV-I-carrying Cells MT-2 and MT-4 and Application in a Plaque Assay", Science, 229, 563-566), (5,000 cells/well) were added. The mixture was incubated for 1 hour at 37° C. and the volume was adjusted with RPMI 1640 medium with 10% FCS to 200 μl. On the fourth day after incubation at 37° C., 100 μl of culture supernatants were collected from each well and equal volumes of fresh medium were added to the wells. The supernatants were assayed for P24 using a kit from Coulter Immunology (Hialeah, Fla.). On the sixth day, an indicator XTT tetrazolium dye (1 mg/ml; 50 μl/well; PolySciences, Inc., Warrington, Penna.) was added to the cells. After 4 hours, intracellular formazan was determined colorimetrically at 450 nm.
^c Chemicals with inhibitory activity in ELISA (RIA) tests were teste
^d EC50 = concentration at which the production of P24 was […]

O=C(O)CC(c1ccccc1)(c1ccccc1)c1ccccc1 [compound 2]
Inhibitory activity [1]: +
inhibition at 50 µg/mL [1]: 27%

c1ccc(CNc2ccccc2)cc1 [compound 42]
Inhibitory activity [1]: +
inhibition at 50 µg/mL [1]: 28.8%

Nc1ccccc1-c1ccccc1 [compound 50]
Inhibitory activity [1]: +
inhibition at 50 µg/mL [1]: 70.5%

Nc1ccc2c(c1)Cc1cc(Br)ccc1-2 [compound 63]
Inhibitory activity [1]: +
inhibition at 50 µg/mL [1]: 37.1%
EC50 (HIV-1): 68 µg/mL (≈ 261 µM)
inhibition (HIV-1): 19%

Nc1ccc2c3c(cccc13)-c1ccccc1-2 [compound 65]
Inhibitory activity [1]: +
inhibition at 50 µg/mL [1]: 27.4%
EC50 (HIV-1): 3 µg/mL (≈ 13.8 µM)
inhibition (HIV-1): 100%

c1cnc2c(c1)CCCCCCCCCC2 [compound 67]
Inhibitory activity [1]: +
inhibition at 50 µg/mL [1]: 36.8%
EC50 (HIV-1): 37 µg/mL (≈ 170 µM)
inhibition (HIV-1): 53%

O=Cc1ccc(-c2ccccc2)cc1 [compound 93]
Inhibitory activity [1]: +
inhibition at 50 µg/mL [1]: 21%
EC50 (HIV-1): > 80 µg/mL
inhibition (HIV-1): 32%

O=C1OC(=O)C2C3c4ccccc4C(c4ccccc43)C12 (stereo not drawn) [compound 106]
Inhibitory activity [1]: +
inhibition at 50 µg/mL [1]: 77.5%
EC50 (HIV-1): 18 µg/mL (≈ 65.1 µM)
inhibition (HIV-1): 82%

O=C(O)CNC(c1ccccc1)(c1ccccc1)c1ccccc1 [compound 108]
Inhibitory activity [1]: +
inhibition at 50 µg/mL [1]: 33.5%

CC(C)C[C@H](NC(=O)[C@H](C)NC(=O)[C@H](CC(C)C)NC(c1ccccc1)(c1ccccc1)c1ccccc1)C(=O)O [compound 114]
Inhibitory activity [1]: +
inhibition at 50 µg/mL [1]: 62.1%
EC50 (HIV-1): > 80 µg/mL
inhibition (HIV-1): 14%

O=C(O)C1=CC(=C(c2ccc(O)c(C(=O)O)c2)c2ccc(O)c(C(=O)O)c2)C=CC1=O [compound 122]
Inhibitory activity [1]: +
EC50 (HIV-1): 12 µg/mL (≈ 28.4 µM)
inhibition (HIV-1): 83%

O=c1cc2oc3cc(O)c(O)cc3c(-c3ccccc3)c-2cc1O [compound 128]
Inhibitory activity [1]: +
inhibition at 50 µg/mL [1]: 58.6%
EC50 (HIV-1): 27 µg/mL (≈ 84.3 µM)
inhibition (HIV-1): 85%

O=C(O)COc1cc2oc3cc(=O)c(OCC(=O)O)cc-3c(-c3ccccc3)c2cc1OCC(=O)O [compound 129]
Inhibitory activity [1]: +
inhibition at 50 µg/mL [1]: 56.8%
EC50 (HIV-1): 15 µg/mL (≈ 30.3 µM)
inhibition (HIV-1): 88%

CC1=C(C(=O)O)C(=O)C(C(C)(C)C)=CC1=C(c1cc(C(C)(C)C)c(O)c(C(=O)O)c1C)c1cc(C(C)(C)C)c(O)c(C(=O)O)c1C [compound 130]
Inhibitory activity [1]: +
inhibition at 50 µg/mL [1]: 38.6%
EC50 (HIV-1): 80 µg/mL (≈ 126 µM)
inhibition (HIV-1): 38%

O=C(O)C1=CC(I)=CC(=C(c2cc(I)cc(C(=O)O)c2O)c2cc(I)cc(C(=O)O)c2O)C1=O [compound 131]
Inhibitory activity [1]: +
inhibition at 50 µg/mL [1]: 74.8%
EC50 (HIV-1): 71 µg/mL (≈ 88.7 µM)
inhibition (HIV-1): 41%

CC(=O)C1=CC(=C(c2ccc(O)c(C(C)=O)c2)c2ccc(O)c(C(C)=O)c2)C=CC1=O [compound 140]
Inhibitory activity [1]: +
inhibition at 50 µg/mL [1]: 69.4%

CC1=C(CCC(=O)O)c2cc3[nH]c(cc4nc(cc5[nH]c(cc1n2)c(C(O)CO)c5C)C(C(O)CO)=C4C)c(C)c3CCC(=O)O (stereo not drawn) [compound 150]
Inhibitory activity [1]: +
inhibition at 50 µg/mL [1]: 43.3%
EC50 (HIV-1): 38.2 µg/mL (≈ 60.6 µM)
inhibition (HIV-1): 99%

C=CC1=C(C)c2cc3[nH]c(cc4nc(cc5[nH]c(cc1n2)c(C)c5CO)C(C)=C4CCC(=O)O)c(CCC(=O)O)c3C [compound 152]
Inhibitory activity [1]: +
inhibition at 50 µg/mL [1]: 82.6%
EC50 (HIV-1): 3 µg/mL (≈ 5.29 µM)
inhibition (HIV-1): 100%

C=CC1=C(C)c2cc3[nH]c(cc4nc(cc5[nH]c(cc1n2)c(C)c5C=C)C(C)=C4CCC(=O)O)c(CCC(=O)O)c3C [compound 158]
Inhibitory activity [1]: +
inhibition at 50 µg/mL [1]: 55.8%
EC50 (HIV-1): 1 µg/mL (≈ 1.78 µM)
inhibition (HIV-1): 100%

O=C(O)c1ccc(-c2c3nc(c(-c4ccc(C(=O)O)cc4)c4ccc([nH]4)c(-c4ccc(C(=O)O)cc4)c4nc(c(-c5ccc(C(=O)O)cc5)c5ccc2[nH]5)C=C4)C=C3)cc1 [compound 160]
Inhibitory activity [1]: +
inhibition at 50 µg/mL [1]: 84.3%
EC50 (HIV-1): 1.3 µg/mL (≈ 1.64 µM)
inhibition (HIV-1): 100%
